Measured values from US20230227409A1, “QUINOLINONE DERIVATIVES AS METHIONINE ADENOSYLTRANSFERASE 2A INHIBITORS” (IDEAYA BIOSCIENCES, INC., priority 2020, published 2023).

biological target: T1, Human MAT2A (Homo sapiens, UniProt P31153); test: Phosphate Sensor Fluorescence Assay (Biologic Example B); assay type: biochemical; conditions: MAT2A enzyme inhibition, Biological Example B; 5.8 nM MAT2A, 500 uM L-methionine, 500 uM ATP; class symbols
T1 construct: Human MAT2A: Cepter, amino acids 1-395; purchased Cepter clone ID 329, lot 00023-123; clone ID 334, lot 00023-148
T1 sequence (P31153 whole entry, the tested form may be a part): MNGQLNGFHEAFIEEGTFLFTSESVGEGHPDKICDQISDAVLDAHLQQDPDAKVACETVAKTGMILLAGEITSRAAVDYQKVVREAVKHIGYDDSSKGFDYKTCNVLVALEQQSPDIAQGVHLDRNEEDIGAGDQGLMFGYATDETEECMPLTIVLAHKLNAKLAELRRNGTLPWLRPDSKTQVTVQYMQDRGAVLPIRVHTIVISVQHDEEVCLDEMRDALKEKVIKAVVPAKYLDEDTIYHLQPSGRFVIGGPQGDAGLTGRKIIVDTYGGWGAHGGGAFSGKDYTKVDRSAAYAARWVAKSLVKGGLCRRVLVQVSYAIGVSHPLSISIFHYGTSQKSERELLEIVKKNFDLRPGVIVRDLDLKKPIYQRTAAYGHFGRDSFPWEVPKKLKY
Method: (§1) The ability of the compound of present disclosure to inhibit MAT2A enzyme was determined using a Phosphate Sensor Fluorescence Assay described below.
(§2) MAT2A enzyme is incubated with a test compound in DMSO or DMSO and its substrates (L-methionine and ATP) in a microtiter plate. The enzymatic reaction is stopped by the addition of Working Phosphate Sensor Mixture. The plate is analyzed for fluorescence at 450 nm. The high control (DMSO with enzyme and its substrates) gives high fluorescence which represents no inhibition of enzymatic activity while the low control (DMSO with MAT2A substrates and no enzyme) gives low fluorescence which represents full inhibition of enzymatic activity.
MAT2A: 5.8 nM MAT2A (1-395), Cepter, clone ID 334, lot 00023-148 before the addition of Working Phosphate Sensor Mixture
(§3) L-methionine: 500 uM before the addition of Working Phosphate Sensor Mixture
ATP: 500 uM before the addition of Working Phosphate Sensor Mixture
(§4) For the assay, a mixture of 1 mM L-methionine/1 mM ATP (2× final pre-stopped concentration) in assay buffer; MAT2A (2× final pre-stopped concentration) in Assay Buffer and Working Phosphate Sensor Mixture (1.5 uM Phosphate Sensor/30 mM EDTA in Assay Buffer, which is 3× final concentrations) were prepared. Test compounds or DMSO were added to the appropriate well using a Beckman Coulter Echo 550 acoustic liquid handler. 10 µL/well of Assay Buffer was added to the wells corresponding to the negative control and 10 µL/well of MAT2A was added to all the wells except for those corresponding to the negative control. After incubating the plate at room temperature for 15 minutes, 10 μL/well of the 1 mM L-methionine/1 mM ATP mixture was added to all wells. The plate was centrifuged at 1000 rpm for 1 minute and then incubated at room temperature for 1 hour. 10 μL of the Working Phosphate Sensor Mixture was added to all wells and the plate was centrifuged at 1000 rpm for 1 minute. The plate was read for fluorescence at 450 nm after exciting at 430 nm on a Tecan Spark microplate reader.
(§5) Percent inhibition was calculated in Chemical and Biological Information System (CBIS), (ChemInnovation Software Inc.). Curves were fitted by CBIS as % inhibition vs. log [compound concentration] using a 4-parameter inhibition model.
(§6) Fit=(A+((B−A)/(1+((C/x)^D))))
(§7) Compounds 1.001-1.021 were tested using the procedure described in Biological Example A, described above. Compounds 1.022-1.026 were tested using the procedure described in Biological Example B, described above.

IC50 | SMILES
10 to 200 nM | COc1cc(C(F)(F)F)cc2c(-c3ccccc3C)c(O)c(=O)[nH]c12 [Compound 1.024, 3-Hydroxy-8-methoxy-4-(o-tolyl)-6-(trifluoromethyl)quinolin-2(1H)-one]
10 to 200 nM | Cc1ncccc1-c1c(O)c(=O)[nH]c2ccc(Cl)cc12 [Compound 1.026, 6-Chloro-3-hydroxy-4-(2-methylpyridin-3-yl)quinolin-2(1H)-one]
10 to 200 nM | Cc1ncccc1-c1c(O)c(=O)[nH]c2ccc(Br)cc12 [Compound 1.025, 6-Bromo-3-hydroxy-4-(2-methylpyridin-3-yl)quinolin-2(1H)-one]
10 to 200 nM | Cn1nccc1-c1c(O)c(=O)[nH]c2ccc(C(F)(F)F)cc12 [Compound 1.022, 3-Hydroxy-4-(1-methyl-1H-pyrazol-5-yl)-6-(trifluoromethyl)quinolin-2(1H)-one]
< 10 nM | Cc1ncccc1-c1c(O)c(=O)[nH]c2ccc(C(F)(F)F)cc12 [Compound 1.023, 3-Hydroxy-4-(2-methylpyridin-3-yl)-6-(trifluoromethyl)quinolin-2(1H)-one]

biological target: T1, Human MAT2A; test: Phosphate Sensor Fluorescence Assay (Biologic Example A); assay type: biochemical; conditions: MAT2A enzyme inhibition, Biological Example A; 500 uM L-methionine, 500 uM ATP; class symbols
Method: as §1, §2
Human MAT2A: Cepter, amino acids 1-395
Assay Buffer: 50 mM Tris, pH 7.5/50 mM KCl/10 mM MgCl2/0.01% Brij-35/1 mM DTT/0.1% BGG/40 nM PNP/6 uM 7-MEG
MAT2A: 10 nM for Cepter clone ID 329, lot 00023-123 before the addition of Working Phosphate Sensor Mixture • 5 nM for Cepter clone ID 334, lot 00023-148 before the addition of Working Phosphate Sensor Mixture
as §3
ATP: 500 uM before the addition of Working Phosphate Sensor Mixture Procedure:
as §4, with “suing D300e digital dispenser. 5 μl/well” for “using a Beckman Coulter Echo 550 acoustic liquid handler. 10 µL/well”, “5 μl/well” for “10 µL/well”, “5 μl/well” for “10 μL/well”, “5 μl” for “10 μL”, “nm.” for “nm on a Tecan Spark microplate reader.”
as §5, §6, §7

IC50 | SMILES
10 to 200 nM | Cc1ccccc1-c1c(O)c(=O)[nH]c2ccc(C(F)(F)F)cc12 [Compound 1.018, 3-hydroxy-4-(o-tolyl)-6-(trifluoromethyl)quinolin-2(1H)-one]
10 to 200 nM | COc1c(-c2ccccc2)c2cc(C(F)(F)F)ccc2[nH]c1=O [Compound 1.019, 3-methoxy-4-phenyl-6-(trifluoromethyl)quinolin-2(1H)-one]
10 to 200 nM | O=c1[nH]c2ccc(Cl)cc2c(-c2ccccc2Cl)c1O [Compound 1.021, 6-chloro-4-(2-chlorophenyl)-3-hydroxyquinolin-2(1H)-one]
10 to 200 nM | O=c1[nH]c2ccc(Cl)cc2c(-c2ccccc2)c1O [Compound 1.010, 6-chloro-3-hydroxy-4-phenylquinolin-2(1H)-one]
10 to 200 nM | O=c1[nH]c2ccc(C(F)(F)F)cc2c(-c2ccccc2)c1O [Compound 1.020, 3-hydroxy-4-phenyl-6-(trifluoromethyl)quinolin-2(1H)-one]
10 to 200 nM | Cc1ccccc1-c1c(O)c(=O)[nH]c2ccc(Cl)cc12 [Compound 1.017, 6-chloro-3-hydroxy-4-(o-tolyl)quinolin-2(1H)-one]

Further lines, the compound ahead of its results:

SMILES | IC50
O=c1[nH]c2ccc(Cl)cc2c(-c2ccccc2)c1Sc1ncnc2sccc12 [Compound 1.006, 6-chloro-4-phenyl-3-(thieno[2,3-d]pyrimidin-4-ylthio)quinolin-2(1H)-one] | 1000 to 10000 nM
O=c1[nH]c2ccc(Cl)cc2c(-c2ccccc2)c1S(=O)(=O)c1ccccc1 [Compound 1.003] | 1000 to 10000 nM
CNS(=O)(=O)c1c(-c2ccccc2)c2cc(Cl)ccc2[nH]c1=O [Compound 1.014, 6-chloro-N-methyl-2-oxo-4-phenyl-1,2-dihydroquinoline-3-sulfonamide] | 1000 to 10000 nM
O=c1[nH]c2ccc(Cl)cc2c(-c2ccccc2)c1Sc1nc2ccccc2s1 [Compound 1.013, 3-(benzo[d]thiazol-2-ylthio)-6-chloro-4-phenylquinolin-2(1H)-one] | 1000 to 10000 nM
COc1c(-c2ccccc2)c2cc(Cl)ccc2[nH]c1=O [Compound 1.004, 6-chloro-3-methoxy-4-phenylquinolin-2(1H)-one] | 200 to 500 nM
COc1c(-c2ccccc2)c2cc(Br)ccc2[nH]c1=O [Compound 1.009, 6-bromo-3-methoxy-4-phenylquinolin-2(1H)-one] | 10 to 200 nM
CS(=O)(=O)c1c(-c2ccccc2)c2cc(Cl)ccc2[nH]c1=O [Compound 1.005, 6-chloro-3-(methylsulfonyl)-4-phenylquinolin-2(1H)-one] | 1000 to 10000 nM
O=c1[nH]c2ccccc2c(-c2ccccc2)c1Sc1ncnc2sccc12 [Compound 1.002] | 500 to 1000 nM
COc1c(-c2ccccc2)c2cc(C3CC3)ccc2[nH]c1=O [Compound 1.011, 6-cyclopropyl-3-methoxy-4-phenylquinolin-2(1H)-one] | 10 to 200 nM
CN(C)c1c(-c2ccccc2)c2cc(Cl)ccc2[nH]c1=O [Compound 1.008, 6-chloro-3-(dimethylamino)-4-phenylquinolin-2(1H)-one] | 1000 to 10000 nM
O=c1[nH]c2ccc(Cl)cc2c(-c2ccccc2)c1S [Compound 1.015, 6-chloro-3-mercapto-4-phenylquinolin-2(1H)-one] | 10 to 200 nM
CCCNS(=O)(=O)c1c(-c2ccccc2)c2cc(Cl)ccc2[nH]c1=O [Compound 1.016, 6-chloro-2-oxo-4-phenyl-N-propyl-1,2-dihydroquinoline-3-sulfonamide] | 1000 to 10000 nM
COc1c(-c2cccnc2)c2cc(Cl)ccc2[nH]c1=O [Compound 1.012, 6-chloro-3-methoxy-4-(pyridin-3-yl)quinolin-2(1H)-one] | 200 to 500 nM

same assay, conditions: MAT2A enzyme inhibition, Biological Example A; 500 uM L-methionine, 500 uM ATP; given as bound

IC50 | SMILES
> 10000 nM | Cn1c(=O)cc(-c2ccccc2)c2cc(Cl)ccc21 [Compound 1.001, 6-chloro-1-methyl-4-phenylquinolin-2(1H)-one]

same assay, conditions: MAT2A enzyme inhibition, Biological Example A; 500 uM L-methionine, 500 uM ATP; unit inferred

IC50 | SMILES
> 10000 nM | CNc1c(-c2ccccc2)c2cc(Cl)ccc2[nH]c1=O [Compound 1.007, 6-chloro-3-(methylamino)-4-phenylquinolin-2(1H)-one]
